Data: paper PMC9863027, “Bioactive Alpha-Pyrone and Phenolic Glucosides from the Marine-Derived Metarhizium sp. P2100” (Journal of Fungi, 2022)
Like-named read-outs stand apart in the source and are kept apart here.

Experiments:
[1] = tested on: NO production in mouse macrophage; test: NO production inhibitory activity in LPS-stimulated mouse macrophage (Griess reaction); assay type: cell-based; details: concentration of 50 μM; LPS 1 μg/mL; mean ± SD
Experimental: The bioassay for NO production inhibitory activity was conducted as described by Xia. The mouse macrophage was seeded in 96-well plates. In each well, lipopolysaccharide (LPS) (1 μg/mL) was added after treating it with or without the tested compound for 24 h. The NO production in the supernatant was detected by the Griess reaction. The absorbance at 540 nm was measured with a microplate reader. The NO concentration and the inhibitory rate were calculated through a calibration curve. Dexamethasone was used as the positive control. Experiments were operated in triplicate, and the data were described as the mean ± SD of three independent experiments.

α-amylase = molecular target: T1, α-amylase (Sus scrofa, UniProt P00690); test: α-amylase inhibition activity (starch substrate, dinitrosalicylic acid reagent); assay type: biochemical; details: read-out: IC50 against α-amylase
T1 sequence (P00690 16-511): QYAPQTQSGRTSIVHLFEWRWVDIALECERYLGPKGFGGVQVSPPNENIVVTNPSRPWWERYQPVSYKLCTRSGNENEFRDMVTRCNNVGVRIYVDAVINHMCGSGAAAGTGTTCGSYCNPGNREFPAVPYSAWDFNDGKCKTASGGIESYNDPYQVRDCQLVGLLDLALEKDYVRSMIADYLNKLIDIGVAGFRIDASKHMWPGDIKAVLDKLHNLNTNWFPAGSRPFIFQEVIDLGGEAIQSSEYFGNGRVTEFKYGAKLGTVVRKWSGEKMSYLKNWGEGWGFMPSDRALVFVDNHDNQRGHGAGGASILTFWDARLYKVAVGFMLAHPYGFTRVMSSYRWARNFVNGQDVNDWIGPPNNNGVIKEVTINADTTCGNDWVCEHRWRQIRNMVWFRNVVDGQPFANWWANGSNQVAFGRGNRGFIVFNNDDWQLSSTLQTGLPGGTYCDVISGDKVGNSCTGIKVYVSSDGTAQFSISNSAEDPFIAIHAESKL
Experimental: The α-amylase inhibition activity was measured by Milella with minor modifications. Tested compounds and 1-Deoxynojirimycin (1-DNJ) were dissolved in methanol at different concentrations. A substrate solution was prepared with 0.25% starch dissolved in 20 mM phosphate buffer solution (PBS). The enzyme (10 units/mL of α-amylase in PBS, 25 µL) and sample solutions (25 µL) were mixed in Eppendorf vials, and the mixtures were incubated at 37 °C for 10 min. Then, 25 µL of substrate solution was added to each tube, and the reaction mixture was incubated at 37 °C for 10 min. The reaction was terminated by adding 150 µL of dinitrosalicylic acid color reagent. Subsequently, the test tubes were heated for 5 min at 100 °C. After cooling at room temperature, the absorbance was measured at 540 nm. The absorbance of the blank (enzyme solution was added during the boiling) and negative controls (methanol) were recorded. Analyses were performed in triplicate, and the final sample absorbance was obtained by subtracting its corresponding blank reading. The inhibitory activity (%) was calculated as follows: % inhibition=(1−A540 sample/A540 negative control) × 100%
The half-maximal inhibitory concentration (IC50) values were calculated according to the inhibition curve and the data were shown in the layout of mean ± SEM by GraphPad Prism 6.0 (GraphPad Software, Inc., La Jolla, CA, USA).

HepG2 cells = tested on: HepG2 cells; design: method as in earlier work; details: read-out: IC50 cytotoxicity against HepG2; cited from earlier work
HEp-2 cells = tested on: HEp-2 cells; design: method as in earlier work; details: read-out: IC50 cytotoxicity against HEp-2; cited from earlier work
[2] = molecular target: protein tyrosine phosphatase 1B (PTP1B); details: read-out: IC50 against PTP1B, cited from earlier work

With “4-(4′-methoxy-β-D-glucosyl)-6-pentyl-2-pyrone [Compound 1]” the “NO production inhibition ratio (%)” value [1] was 53.85 ± 2.32% and the IC50 (α-amylase) was 128 µM.
For `COc1c(O[C@@H]2O[C@H](CO[C@@H]3OC[C@H](O)[C@H](O)[C@H]3O)[C@@H](O)[C@H](O)[C@H]2O)cc(OC)c2c(=O)c3ccccc3oc12` [3-O-(6-O-α-L-arabinopyranosyl)-β-D-gluco-pyranosyl-1,4-dimethoxyxanthone], the IC50 (HepG2 cells) is listed as 16 µM and the IC50 (HEp-2 cells) is listed as 9 µM.
For `CCCCCCCCCCCCCCCc1cc(O[C@@H]2O[C@H](CO)[C@@H](O)[C@H](O)[C@H]2O)cc(O)c1C(=O)Oc1cc(C)c(C(=O)O)c(O)c1` [Aquastatin A], the IC50 ([2]; competitive manner) is given as 0.19 µM.
With `CCCCC(OC1OC(CO)C(OC)C(O)C1O)c1cc(OC)cc(=O)o1` [Compound 2, 7(R)-(4′-methoxy-β-D-glucosyl)-4-methoxy-6-pentyl-2-pyrone] the “NO production inhibition ratio (%)” value [1] was 62.30 ± 1.46%.
In the case of `CCCCC(OC1OC(CO)C(OC)C(O)C1O)c1cc(OC)cc(=O)o1` [Compound 3, 7(S)-(4′-methoxy-β-D-glucosyl)-4-methoxy-6-pentyl-2-pyrone], the “NO production inhibition ratio (%)” value [1] is reported as 68.44 ± 3.75%.
For `COc1cc(C(C)=O)ccc1O[C@@H]1O[C@H](CO)[C@@H](OC)[C@H](O)[C@H]1O` [Compound 4, Lecaniside D], the “NO production inhibition ratio (%)” value [1] was 68.10 ± 2.07%.
In the case of `C[C@@H]1C[C@H]2[C@@H]3CCC4=CC(=O)C=C[C@]4(C)[C@@]3(F)[C@@H](O)C[C@]2(C)[C@@]1(O)C(=O)CO` [Dexamethasone, reference compound], the “NO production inhibition ratio (%)” value [1] is reported as 63.88 ± 2.07%.
For Lecaniside C, the IC50 [2] is given as > 50 µM.
